The values that follow come from publication PMC12207250, “Investigations of amination reactions on an antimalarial 1,2,4-triazolo[4,3-a]pyrazine scaffold” (Beilstein Journal of Organic Chemistry, 2025).

Read-outs that look alike come from different tables or passages of the source.

In data set [1] the test system is P. falciparum 3D7 (chloroquine-sensitive strain). Description: In vitro antiplasmodial image-based assay. The following applies: for IC50 / inhibition at 80 µM: Plasmodium falciparum; for IC50: read-out: Pf 3D7 IC50 ± SD; for Selectivity index (fold difference) IC50(HEK293)/IC50(Pf 3D7): HEK293 versus Pf 3D7; for inhibition at 80 µM: 3D7, accurate IC50 not determinable, read-out: growth inhibition against Pf 3D7 at the assay top dose. Type of data set: cell-based, Plasmodium falciparum. As to the method:
Plasmodium falciparum 3D7 were cultured in RPMI1640 (Life Technologies, Camarillo, CA, USA) supplemented with 2.5 mg/mL Albumax II, 5% AB human serum, 25 mM HEPES, and 0.37 mM hypoxanthine. Human red blood cells (RBC) (O+) were supplied by Australian Red Cross LifeBlood in accordance with agreement 23-05QLD-23. Use of human RBC for antiplasmodial experimentation was in accordance with Griffith University Human Ethics Exemption Approval #03/08/11019. Ring-stage parasites were treated with compounds following two rounds of sorbitol synchronisation, as previously described. Puromycin, chloroquine, pyrimethamine, and dihydroartemisinin were used as reference compounds. Following incubation of assay plates for 72 h at 37 °C, and 5% CO2 and 5% O2, parasites were stained with 2-(4-amidinophenyl)-1H-indole-6-carboxamidine (DAPI) and imaged using an Opera PhenixPlus™ High Content Screening System (PerkinElmer, Waltham, MA, USA). Images were analysed using the Harmony software (PerkinElmer, Waltham, MA, USA). […]
In vitro antiplasmodial image-based assay
Plasmodium falciparum 3D7 were cultured in RPMI1640 (Life Technologies, Camarillo, CA, USA) supplemented with 2.5 mg/mL Albumax II, 5% AB human serum, 25 mM HEPES, and 0.37mM hypoxanthine. Human red blood cells (RBC) (O+) were supplied by Australian Red Cross LifeBlood in accordance with agreement 23-05QLD-23. Use of human RBC for anti-plasmodial experimentation was in accordance with Griffith University Human Ethics Exemption Approval #03/08/11019. Ring stage parasites were treated with compounds following two rounds of sorbitol synchronisation, as previously described. Puromycin, chloroquine, pyrimethamine, and dihydroartemisinin were used as reference compounds. Following incubation of assay plates for 72 h at 37 °C, and 5% CO2 and 5% O2, parasites were stained with 2-(4-amidinophenyl)-1H-indole-6-carboxamidine (DAPI) and imaged using an Opera PhenixPlusTM High Content Screening System (PerkinElmer, Waltham, MA, USA).
Images were analysed using Harmony software (PerkinElmer, Waltham, MA, USA).

Data set [2] concerns HEK293 cells. Put plainly: In vitro cytotoxicity assay (resazurin). Type of data set: cell-based, human. The note with it: for cytotoxicity against HEK293 cells at the top concentration tested (in words): 80 µM. The procedure: (§1) Human embryonic kidney (HEK293) cells were maintained in DMEM (Life Technologies, Camarillo, CA, USA) containing 10% FBS (Hyclone™ ThermoFisher, Melbourne, Australia). Cytotoxicity testing was undertaken as previously described. In brief, 5 μL of test compound was added to the well of black/clear tissue culture-treated, 384-well plates containing 2000 adherent HEK293 cells/well and incubated 72 h at 37 °C in 5% CO2. […], 5 µL of 600 µM resazurin, diluted in growth media, was added. Plates were further incubated for 6 h and measured for fluorescence at 530 nm excitation and 595 nm emission. The % inhibition was calculated using 0.4% DMSO (no inhibition) and 50 μM puromycin (100% inhibition) data. Puromycin was included as a reference compound to assess assay validity. IC50 values were obtained by plotting % inhibition against log dose using GraphPad Prism v.6 (San Diego, CA, USA) nonlinear regression with a variable slope plot.
In vitro cytotoxicity assay
Human embryonic kidney (HEK293) cells were maintained in DMEM (Life
Technologies, Camarillo, CA, USA) containing 10% FBS (Hyclone™ ThermoFisher, Melbourne, Australia). Cytotoxicity testing was undertaken as previously described.
as §1, with “In brief,” for “Human embryonic kidney (HEK293) cells were maintained in DMEM (Life Technologies, Camarillo, CA, USA) containing 10% FBS (Hyclone™ ThermoFisher, Melbourne, Australia). Cytotoxicity testing was undertaken as previously described. In brief,”, “and incubated for 72 h” for “and incubated 72 h”, “slope plot. […]” for “slope plot.”

Setting [3] is: P. falciparum 3D7, ring-stage, 72 h, mean of duplicate, n = 1.
The mark [4] stands for this setting: Homo sapiens, HEK293, at top concentration 80 µM, 72 h, mean of duplicate, n = 1, read-out: HEK293 % inhibition ± SD.
Setting [5] is: reference compounds, P. falciparum 3D7, 72 h.

Consider `CCN(CC)CCCC(C)Nc1ccnc2cc(Cl)ccc12` (centres unmarked) [CQ, chloroquine, reference compound], for which, in data set [1] (3D7, 72 h), the IC50 was 0.0212 ± 0.00566 µM.

With `Clc1ccc(-c2nnc3cncc(Cl)n23)cc1` [Compound 1, 5-chloro-3-(4-chlorophenyl)-[1,2,4]triazolo[4,3-a]pyrazine], the “Selectivity index (fold difference) IC50(HEK293)/IC50(Pf 3D7)” value in data set [1] is over 6. Also, in data set [1] (setting [3]), the IC50 stood at 12.6 ± 1.9 µM. Moreover, the “cytotoxicity against HEK293 cells at the top concentration tested (in words)” value (“cytotoxicity against HEK293 cells” below) in data set [2] is “no cytotoxicity”.

`Clc1ccc(-c2nnc3c(NCCc4ccccc4)nccn23)cc1` [Compound 2, 3-(4-Chlorophenyl)-N-phenethyl-[1,2,4]triazolo[4,3-a]pyrazin-8-amine]: the inhibition at 80 µM in data set [1] is under 100%. Besides, in data set [2], the “cytotoxicity against HEK293 cells” value is given as “no cytotoxicity”.

With `Fc1ccc(CCNc2nccn3c(-c4ccc(Cl)cc4)nnc23)cc1` [Compound 3], the results for the inhibition at 80 µM in data set [1] and in data set [2] (setting [4]) were under 100% and 74 ± 7%, respectively. The “cytotoxicity against HEK293 cells” value in data set [2] is given as “some inhibition”.

As to `Clc1ccc(-c2nnc3c(NCc4ccccc4)nccn23)cc1` [Compound 4], in data set [1], the inhibition at 80 µM was under 100%.

Take `Fc1ccc(CNc2nccn3c(-c4ccc(Cl)cc4)nnc23)cc1` [Compound 5]: in data set [1], the inhibition at 80 µM is under 100%.

With `CCCNc1nccn2c(-c3ccc(Cl)cc3)nnc12` [Compound 6], the inhibition at 80 µM in data set [1] is under 100%.

As to `CC(C)CCNc1nccn2c(-c3ccc(Cl)cc3)nnc12` [Compound 7, 3-(4-Chlorophenyl)-N-isopentyl-[1,2,4]triazolo[4,3-a]pyrazin-8-amine], the inhibition at 80 µM in data set [1] was under 100%.

On to `Clc1ccc(-c2nnc3c(NC4CCCCC4)nccn23)cc1` [Compound 8], for which the inhibition at 80 µM in data set [1] is under 100%.

Turning to `COCCNc1nccn2c(-c3ccc(Cl)cc3)nnc12` [Compound 9], the inhibition at 80 µM in data set [1] was under 100%.

Regarding `CN(C)CCNc1nccn2c(-c3ccc(Cl)cc3)nnc12` [Compound 10, N^1-(3-(4-Chlorophenyl)-[1,2,4]triazolo[4,3-a]pyrazin-8-yl)-N^2,N^2-dimethylethane-1,2-diamine], the “Selectivity index (fold difference) IC50(HEK293)/IC50(Pf 3D7)” value in data set [1] is over 3. Besides, in data set [1] (setting [3]), the IC50 amounted to 23.3 ± 1.7 µM.

For `CCN(CC)CCNc1nccn2c(-c3ccc(Cl)cc3)nnc12` [Compound 11], the “Selectivity index (fold difference) IC50(HEK293)/IC50(Pf 3D7)” value in data set [1] is given as over 4. Further, in data set [1] (setting [3]), the half-inhibitory concentration (IC50) worked out at 22 ± 2.4 µM.

`CN(C)CCCNc1nccn2c(-c3ccc(Cl)cc3)nnc12` [Compound 12]: the “Selectivity index (fold difference) IC50(HEK293)/IC50(Pf 3D7)” value in data set [1] is recorded as over 4. In addition, the IC50 in data set [1] (setting [3]) amounted to 22 ± 1.56 µM.

As to `CCN(CC)CCCNc1nccn2c(-c3ccc(Cl)cc3)nnc12` [Compound 13], the IC50 in data set [1] (setting [3]) was 11.3 ± 0.57 µM. The inhibition at up to 80 µM in data set [2] (setting [4]) was found to be 48 ± 5%.

As to `Clc1ccc(-c2nnc3c(NCCN4CCNCC4)nccn23)cc1` [Compound 14], the IC50 in data set [1] (setting [3]) is 9.9 ± 1.27 µM. Further, the inhibition at 80 µM in data set [2] (setting [4]) was found to be 84 ± 4%.

In the case of `CC(C)(C)OC(=O)NCCCCNc1nccn2c(-c3ccc(Cl)cc3)nnc12` [Compound 15, tert-Butyl(4-((3-(4-chlorophenyl)-[1,2,4]triazolo[4,3-a]pyrazin-8 yl)amino)butyl)carbamate], the inhibition at 80 µM in data set [1] is under 100%; in data set [2] (setting [4]), 57 ± 4%.

As to `C[C@H]1[C@@H](O)O[C@@H]2O[C@@]3(C)CC[C@H]4[C@H](C)CC[C@@H]1[C@@]24OO3` [DHA, dihydroartemisinin, reference compound], in data set [1] (setting [5]), the IC50 worked out at 0.000475 ± 9e-05 µM.

For the molecule `CCc1nc(N)nc(N)c1-c1ccc(Cl)cc1` [PMA, pyrimethamine, reference compound], in data set [1] (setting [5]), the IC50 is 0.0112 ± 0.00212 µM.

For `COc1ccc(C[C@H](N)C(=O)N[C@H]2[C@@H](O)[C@H](n3cnc4c(N(C)C)ncnc43)O[C@@H]2CO)cc1` [PMY, puromycin, reference compound], the “Selectivity index (fold difference) IC50(HEK293)/IC50(Pf 3D7)” value in data set [1] is 13. Also, the IC50 was 0.0338 ± 0.00566 µM in data set [1] (setting [5]) and 430 ± 28.3 nM in data set [2] (Homo sapiens, HEK293, reference compounds, 72 h, read-out: HEK293 IC50 ± SD).

As usually defined, the IC50 is the midpoint of a concentration-inhibition curve. The inhibition is the share of the control response that was lost under treatment.
